# Experimental data reported in patent US20240245707A1, “COMPOSITIONS FOR TREATING INSOMNIA AND USES THEREOF” (Zhejiang Jiachi Development Pharmaceuticals LTD., priority 2021, published 2024).
# Where “and” joins values, the source holds several entries; their conditions need not be identical. Equal entries are not always repeated. Entries after “also recorded” stand apart in the source; their conditions may differ.
# How the values were obtained:
# [1] = tested on: postmenopausal women having insomnia; test: Self-assessment of insomnia with Athens Insomnia Scale (AIS) before and after taking anordrin; assay type: in vivo, human
# Description: Insomnia is usually measured using sleep disorder questionnaire (SDQ) such as Pittsburgh sleep quality index (PSQI), Epworth Sleeping Scale or the Athens Insomnia Scale (AIS), or using sleep quality monitor to count sleep dysfunction rating scale (SDRS). AIS is the one of popularly used SEQ. It is measured by assessing eight factors amongst which first five factors are related to nocturnal sleep and last three factors are related to daytime dysfunction. These are rated on a 0-3 scale and the sleep is finally evaluated from the cumulative score of all factors and reported as an individual's sleep outcome. Over the period of time, AIS is considered to be an effective tool in sleep analysis, and it is validated in various countries by testing it on local patients. A cut-off score of at least 6 on the AIS is used to establish the diagnosis of insomnia. See Soldatos C R, Dikeos D G, Paparrigopoulos T J (2002). “The diagnostic validity of the Athens Insomnia Scale”. J Psychosom Res. 55 (3): 263-7.
# Individuals who have taken anordrin (less than 1 mg) were self-assessed for the presence and the extent of insomnia before and after they took anordrin. Specifically, thirteen postmenopausal women took anordrin for about two weeks to a few months. Their sleep quality were evaluated with Athens Insomnia Scale (AIS).
# [2] = tested on: rat primary neuronal cells; test: ATP level of neuronal cells treated with anordrin (ATP assay kit); assay type: cell-based; details: 10 nM anordrin, 24 hours, vs vehicle; FIG. 5
# Description: See Chikahisa et al., Front Neurol. 2011; 2: 87.
# Materials and equipment include cell culture medium, FBS and Charcoal stripped FBS, ATP assay kit (Thermofisher) and rat primary neuronal cells (Wuhan servisebio).
# Primary neuronal cells (2×10^6) were grew in medium containing 10% FBS in 6 well plates for 24 hours. Then the medium was replaced with phenol red free medium contain 5% Charcoal stripped FBS for 24 hours. 10 nM anordrin or vechile were added in medium for 24 hours, and then cells were harvested. The fluorescence density of ATP was assayed using ATP assay kit following manufacture's instruction.
# [3] = tested on: postmenopausal women with chronic insomnia; test: Phase II clinical trial of α-anordrin enteric-coated tablets, Athens Insomnia Scale (AIS) index, preliminary results; assay type: in vivo, human
# Description: This Phase II clinical trial uses a randomized, double-blind, parallel-controlled design and is conducted in three clinical trial centers. A total of three drug groups are pre-set which are a) the 0.05 mg/day dosing group, b) the 0.1 mg/day dosing group, and c) the 0.15 mg/day dosing group as well as the placebo group. The drug intervention period is 8 weeks, and the drug intervention is followed up for 4 weeks. Primary efficacy endpoint includes vaginal detachment cell maturity index and dryness in postmenopausal women. Secondary efficacy endpoint includes quality in postmenopausal women, vaginal microecological index, vaginal pH in postmenopausal women, as well as the safety endpoint. The effectiveness and safety of different doses of α-anordrin tablets are preliminarily evaluated.
# Group 1 (0.05 mg dose group): daily oral administration of one 0.05 mg α-anordrin enteric-coated tablet. Group 2 (0.1 mg dose group): daily oral administration of one 0.1 mg α-anordrin enteric-coated tablet. Group 3 (0.15 mg dose group): daily oral administration of one 0.15 mg α-anordrin enteric-coated tablet. Group 4: placebo group. […]
structure (smiles),measurement,setting,value
"C#C[C@@]1(OC(=O)CC)C[C@@H]2CC[C@@H]3[C@H](CC[C@@]4(C)[C@H]3CC[C@]4(C#C)OC(=O)CC)[C@@]2(C)C1 [anordrin, 2α, 17α-diethynyl-A-nor-5α-androstane-2β,17β-diol dipropionate]",decrease of the average number of AIS,"[1]; after vs before treatment, thirteen postmenopausal women",63%
same,postmenopausal women having insomnia that exhibited a significant improvement in sleeping,"[1]; anordrin at various dosages, Example 1",100%
same,numbers of AIS for each patient after treatment (in words),"[1]; thirteen postmenopausal women, FIG. 3 and Table 1",significantly decreased
same,Average # of AIS after treatment,"[1]; thirteen postmenopausal women, average before treatment 17.4, STDEV 1.2, p value <0.0001",6.3
same,ATP level of neuronal cells,[2],significantly increased; also recorded: induces ATP surge
same,AIS number (after treatment),"[3]; one patient per row, 0.05 mg/day oral, before treatment 12-19, preliminary results",4 and 5 (2×)
same,sleeping quality after treatment (in words),"[3]; three patients, 0.05 mg/day",significantly improved sleeping quality
